Reference: US20100008932A1, “USE OF SOLUBLE CD160 TO SUPPRESS IMMUNITY” (INSERM (Institut National de la Sante et de la Recherche …, priority 2006, published 2010)

Key:
[1] = system: release of soluble CD160 by IL-15-stimulated PB-NK cells; assay: Anti-CD160 immunoprecipitation and immunoblotting of soluble CD160 in PB-NK cell culture supernatant; type: cell-based, human; details: IL-15-stimulated PB-NK cells cultured in the presence of 1,10-PNT; CL1-R2 immunoprecipitation and Western blot
Experimental: Culture medium (10 ml) from transfected COS7 cells was incubated with 5 μg of anti-Flag M2 mAb for 1 h 30 at 4° C., and immune complexes were collected with 20 μl of Protein G-Sepharose beads. Alternatively, 2×10^7 control or IL-15-activated PB-NK lymphocytes were cultured for 24-48 h in 10 ml of RPMI 1640 medium without serum. Culture supernatants were collected and incubated with CL1-R2 mAb (10 μg per test) followed by protein G-Sepharose beads. After washes, the precipitated proteins were separated by SDS-8% PAGE. The proteins were then transferred onto a nitrocellulose membrane and subjected to Western blot analysis using the anti-CD160 (CL1-R2, 5 μg/ml) or anti-Flag M2 (5 μg/ml) mAb. HRP-conjugated goat anti-mouse antibodies (Jackson Immunoresearch, Westgrove, Pa.) were used as secondary antibodies, and the immunoreactive proteins were visualized using an ECL kit (Amersham Biosciences).

[2] = system: CD160 cell surface expression on IL-15-activated PB-NK lymphocytes; assay: Inhibition of the GPI-anchored CD160 cleavage: flow cytometry of membrane-bound CD160 on IL-15-activated PB-NK cells; type: cell-based, human; details: 8-12 h after 72 h IL-15, PB-NK cells, anti-CD160 mAb BY55 flow cytometry
Text: The antibodies used in this study were the following: anti-Flag M2 mAb (Sigma, St Quentin Fallavier, France), rabbit anti-GPI-phospholipase D (Caltag laboratories, Burlingame, Calif.), anti-CD56 mAb (Beckman-Coulter, Marseille, France), and anti-CD160 mAb (BY55 (IgM) and CL1-R2 (IgG1), produced locally). Irrelevant isotype-matched antibodies were used as negative controls. FITC- or PE-conjugated goat anti-mouse IgG or IgM (Beckman-Coulter), or coat anti-rabbit IgG (Caltag laboratories) were utilized as secondary reagents. Cells were phenotyped by indirect i munofluorescence. Briefly, the cells were incubated with the specific mAb for 30 min at 4° C., washed twice in PBS, and further incubated with the appropriated FITC- or PE-labeled secondary antibodies. After washing, cells were analyzed by flow cytometry on an EPICS XL apparatus (Beckman-Coulter). For intracellular staining, the cells were permeabilized in saponin buffer (PBS/0.1% BSA/0.1% saponin) (Sigma) prior to staining, and all subsequent steps were performed in saponin buffer, as described above.
The phospholipase inhibitors U73122, U73343 and 1,10 phenanthroline (1,10 PNT) were purchased from Sigma. 3×10^5/ml PB-NK cells were cultured for 72 h in RPMI 1640 supplemented with 10% heat-inactivated human serum, penicillin/streptomycin, L-glutamine and IL-15 (10 ng/ml; PeproTech, Levallois-Perret, France). […]

Structure (SMILES)	soluble CD160 protein band immunoprecipitated from culture supernatant [1]	effect on IL-15-induced down-modulation of CD160 cell surface expression ([2]; 1,10 PNT 10 μM)	effect on IL-15-induced down-modulation of CD160 cell surface expression ([2]; U73122 2 μM)
O.c1cnc2c(c1)ccc1cccnc12 [1,10 PNT, 1,10-phenanthroline monohydrate]	no protein band is immunoprecipitated	partially impaired	–
COc1ccc2c(c1)CC[C@@H]1[C@@H]2CC[C@]2(C)[C@@H](NCCCCCCN3C(=O)C=CC3=O)CC[C@@H]12 [U73122]	–	–	not affected
